The values that follow come from patent US8637684B2, “Tautomycetin and tautomycetin analog biosynthesis” (Wisconsin Alumni Research Foundation, priority 2010, dated 2014).

This experiment concerns the target T1, SHP2 (Homo sapiens, UniProt Q06124).
T1 construct: The expression and purification of the SHP2 catalytic domain (residues 262-528) were described previously; made in house
T1 sequence (Q06124 262-528): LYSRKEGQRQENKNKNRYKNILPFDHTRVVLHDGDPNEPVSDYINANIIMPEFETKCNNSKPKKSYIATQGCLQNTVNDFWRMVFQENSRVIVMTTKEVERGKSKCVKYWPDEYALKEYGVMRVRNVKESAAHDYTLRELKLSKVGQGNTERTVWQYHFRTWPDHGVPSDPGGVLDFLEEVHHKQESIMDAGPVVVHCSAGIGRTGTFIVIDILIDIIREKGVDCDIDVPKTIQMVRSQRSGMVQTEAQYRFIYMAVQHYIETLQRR
In words: PTP activity assay with pNPP as substrate: SHP2. Format: biochemical.

Usually IC50 stands for the point on the concentration scale where inhibition reaches its midpoint. The low end stands for higher potency, the high end for lower potency.

Experimental: The PTP activity was assayed using pNPP as a substrate at 25° C. in 50 mM 3,3-dimethylglutarate buffer, pH 7.0, containing 1 mM EDTA with an ionic strength of 0.15 M adjusted by NaCl. TTM, TTN and the engineered analogs were analyzed for inhibition of a panel of PTPs at 10 μM compound concentration. For each enzyme screened, test compounds were diluted to 20 μM in 100 μL and combined with 50 μL pNPP at a concentration of 4×Km. The reaction was initiated by the addition of 50 μL of 4× concentrated enzyme and pNPP was allowed to convert to the product p-nitrophenol. The reaction was quenched by the addition of 50 μL of 5N NaOH. Nonenzymatic hydrolysis of pNPP was corrected by measuring the control without the addition of enzyme. Production of p-nitrophenol was monitored by a Spectra MAX385 microplate spectrophotometer (Molecular Devices) at 405 nm using a molar extinction coefficient of 18,000 M^−1 cm^−1. IC50 values were calculated by fitting the absorbance at 405 nm versus inhibitor concentration to the following equation: AI/A0=IC50/(IC50+[I]) where AI is the absorbance at 405 nm of the sample in the presence of inhibitor; Ao is the absorbance at 405 nm in the absence of inhibitor; and [I] is the concentration of the inhibitor.
The effect of the compounds on PTP-catalyzed hydrolysis of p-nitrophenyl phosphate (pNPP) was assessed at pH 7 and 25° C. Members of the PTP superfamily that were included in the screen included the cytosolic PTPs, PTP1B, SHP1, SHP2, Lyp, HePTP, Meg2, and FAP1, the receptor-like PTPs, CD45, LAR, and PTPα, the dual specificity phosphatases VHR, VHX, and Cdc14, and the low molecular weight PTP.
Therefore, all of the IC50 values reported in this study directly reflect the true affinity of the compound for the enzymes tested.

On to tautomycetin [TTN], for which the “preference for SHP2 over all PTPs examined” value (from IC50 values) is reported as no less than 5 fold. Under “pNPP as substrate at Km, pH 7.0, 25° C., I = 0.15 M”, this substance yielded an IC50 of 2.9 µM.
